Data as given in ChEMBL document CHEMBL1201862, “PubChem BioAssay data set” (2004).
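Protocol summary: plate cells (96-well), add compound at 5 concentrations, incubate 48 h, interpolate endpoints linearly. The concentration for 50% growth inhibition is given as GI50.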 Activity calls are given as the source filed them. Cut-off read from the data, not from the text of the source: active = GI50 up to about 1.1 µM and inactive = higher.

How the values were obtained:
Experiment in all cases: growth of human tumour cells (NCI), 48 h
M14 = system: M14
SN12C = system: SN12C
RPMI-8226 = system: RPMI-8226
MDA-MB-435 = system: MDA-MB-435
NCI-H23 = system: NCI-H23
NCI-H460 = system: NCI-H460
MOLT-4 = system: MOLT-4
A498 = system: A498
T47D = system: T47D
SNB-75 = system: SNB-75
KM12 = system: KM12
SR = system: SR
OVCAR-5 = system: OVCAR-5
MDA-MB-231 = system: MDA-MB-231
SW-620 = system: SW-620
IGROV-1 = system: IGROV-1
SNB-19 = system: SNB-19
EKVX = system: EKVX
UACC-62 = system: UACC-62
LOX IMVI = system: LOX IMVI
NCI/ADR-RES = system: NCI/ADR-RES
NCI-H522 = system: NCI-H522
UO-31 = system: UO-31
ACHN = system: ACHN
HOP-92 = system: HOP-92
HOP-62 = system: HOP-62
U-251 = system: U-251
CAKI-1 = system: CAKI-1
SF-539 = system: SF-539
TK-10 = system: TK-10
SK-MEL-5 = system: SK-MEL-5
MCF7 = system: MCF7
SF-268 = system: SF-268
SK-OV-3 = system: SK-OV-3
786-0 = system: 786-0
SF-295 = system: SF-295
CCRF-CEM = system: CCRF-CEM
BT-549 = system: BT-549
COLO 205 = system: COLO 205
RXF 393 = system: RXF 393
Malme-3M = system: Malme-3M
OVCAR-3 = system: OVCAR-3
OVCAR-8 = system: OVCAR-8
DU-145 = system: DU-145
NCI-H226 = system: NCI-H226
MDA-N = system: MDA-N
Hs-578T = system: Hs-578T
PC-3 = system: PC-3
HT-29 = system: HT-29
SK-MEL-28 = system: SK-MEL-28
HL-60 = system: HL-60
K562 = system: K562
A549 = system: A549
OVCAR-4 = system: OVCAR-4
UACC-257 = system: UACC-257
HCT-116 = system: HCT-116
HCT-15 = system: HCT-15
HCC 2998 = system: HCC 2998
SK-MEL-2 = system: SK-MEL-2

Measured: GI50

C/C(=C/CC[C@](C)(OC1OC(CO)C(O)C(O)C1O)[C@H]1CC[C@]2(C)[C@@H]1CC[C@@H]1[C@@]3(C)CC[C@H](O)C(C)(C)[C@@H]3C[C@H](O)[C@]12CO)CO (stereo partly drawn)
> 100 µM: HCT-15
inactive: M14 > 100 µM | SN12C > 100 µM | RPMI-8226 > 100 µM | MDA-MB-435 > 100 µM | NCI-H23 > 100 µM | NCI-H460 > 100 µM | MOLT-4 > 100 µM | A498 > 100 µM | T47D > 100 µM | SNB-75 > 100 µM | KM12 > 100 µM | SR > 100 µM | OVCAR-5 > 100 µM | MDA-MB-231 > 100 µM | SW-620 > 100 µM | IGROV-1 > 100 µM | SNB-19 > 100 µM | EKVX > 100 µM | UACC-62 > 100 µM | LOX IMVI > 100 µM | NCI/ADR-RES > 100 µM | NCI-H522 > 100 µM | UO-31 > 100 µM | ACHN > 100 µM | HOP-92 > 100 µM | HOP-62 > 100 µM | U-251 > 100 µM | CAKI-1 > 100 µM | SF-539 > 100 µM | TK-10 > 100 µM | SK-MEL-5 > 100 µM | MCF7 > 100 µM | SF-268 > 100 µM | SK-OV-3 > 100 µM | 786-0 > 100 µM | SF-295 > 100 µM | CCRF-CEM > 100 µM | BT-549 > 100 µM | COLO 205 > 100 µM | RXF 393 > 100 µM | Malme-3M > 100 µM | OVCAR-3 > 100 µM | OVCAR-8 > 100 µM | DU-145 > 100 µM | NCI-H226 > 100 µM | MDA-N > 100 µM | Hs-578T > 100 µM | PC-3 > 100 µM | HT-29 > 100 µM | SK-MEL-28 > 100 µM | HL-60 > 100 µM | K562 > 100 µM | A549 > 100 µM | OVCAR-4 > 100 µM | UACC-257 > 100 µM | HCT-116 > 100 µM

CN(C)CCCNC(=O)c1cc(NC(=O)c2cc(NC(=O)c3cc(NC(=O)CCCn4ccc(CO)c4CO)cn3C)cn2C)cn1C
inactive: SN12C 6.18 µM | MDA-MB-435 11.1 µM | NCI-H23 13.8 µM | NCI-H460 12.5 µM | MOLT-4 4.74 µM | T47D 6.85 µM | SNB-75 5.01 µM | KM12 > 100 µM | SR 6.5 µM | OVCAR-5 3.99 µM | MDA-MB-231 27.7 µM | SW-620 20.6 µM | IGROV-1 3.2 µM | SNB-19 2.9 µM | EKVX 72.4 µM | UACC-62 3.48 µM | LOX IMVI 4.28 µM | NCI/ADR-RES > 100 µM | NCI-H522 2.37 µM | HCC 2998 63.5 µM | UO-31 > 100 µM | ACHN 15.8 µM | HOP-92 13 µM | U-251 2.77 µM | CAKI-1 > 100 µM | SF-539 3.44 µM | TK-10 24.8 µM | SK-MEL-5 2.71 µM | MCF7 3.27 µM | SF-268 3.83 µM | 786-0 4.2 µM | CCRF-CEM 3.73 µM | BT-549 2.64 µM | COLO 205 11.2 µM | RXF 393 1.85 µM | Malme-3M 14.5 µM | OVCAR-3 10.9 µM | DU-145 3.94 µM | NCI-H226 2.97 µM | MDA-N 16.5 µM | Hs-578T 22.1 µM | PC-3 12.2 µM | SK-MEL-28 11.4 µM | HL-60 3.1 µM | K562 3.78 µM | A549 14.5 µM | OVCAR-4 19.5 µM | SK-MEL-2 25.6 µM | HCT-116 3.86 µM
> 100 µM: HCT-15
active: SK-OV-3 1.06 µM
